# Experimental data reported in US6372727B1, “Metalloporphyrin treatment of neurologic disease” (UAB Research Foundation, priority 1999, dated 2002).
# Where “and” joins values, the source holds several entries; their conditions need not be identical. Equal entries are not always repeated.
# How the values were obtained:
# [1] = Peroxynitrite-mediated nitration of GYA peptide; type: biochemical; details: 2 mM GYA, 10 μM MP, pH 7.4
# Protocol: Nitration efficiency, defined as the moles of nitrated GYA peptide formed per mole of peroxynitrite added, was determined at a fixed concentration of 10 μM MP or Cu,Zn SOD subunit, or 1 mM CO2 as described below. Increasing amounts of peroxynitrite were added in a sequential manner in order to determine whether nitration efficiency varied with concentration and to determine whether nitration catalysis was maintained with multiple additions (see INSET). Nitration efficiency was calculated for each peroxynitrite addition; the values shown are the average of all nine peroxynitrite additions. Absorbance changes were monitored simultaneously at 380, 430, and 460 nm.
# (§1) For nitration of GYA peptide (see FIG. 6), reaction solutions contained 2 mM GYA and 10 μM of the indicated MP in 1.4 ml of 0.1 M potassium phosphate, pH 7.4 at 37° C. Comparisons with two previously characterized nitration catalysts, human Cu,Zn superoxide dismutase (hCu,Zn SOD) and carbon dioxide, were made using 10 μM of SOD subunit and 25 mM potassium bicarbonate, respectively, which was pH-adjusted to 7.4. This level of bicarbonate results in rapid saturation of the solution with carbon dioxide (˜1 mM). Solutions were placed into a rapidly stirred cuvette and nine bolus additions (50 μM×3, 100 μM×3, and 200 μM×3) of peroxynitrite were made sequentially while the absorbance was monitored. Increasing amounts of peroxynitrite were added in a sequential manner in order to determine whether nitration efficiency varied with concentration and to determine whether nitration catalysis was maintained with multiple additions (see FIG. 6 inset). Nitration efficiency was defined as the amount of nitropeptide formed per amount of peroxynitrite added and was calculated for each peroxynitrite addition; the values shown are the average of all nine peroxynitrite additions. The absorbance changes associated with nitrotyrosine peptide production were monitored simultaneously at 380, 430, and 460 nm. The extinction coefficients for nitrated GYA at pH 7.4 are 4,400 M^−1cm^−1 at 430 nm and 2,200 M^−1cm^−1 at both 380 and 460 nm. […] Wavelengths used to quantify nitrotyrosine production were chosen to minimize interference by the particular metalloporphyrin used. Experiments using HPA as a nitration target (FIG. 7) contained 8 mM HPA in either 0.1 M potassium phosphate, pH 7.4 or 0.1 M sodium borate, pH 9.1.
# The relative abilities of several MPs to enhance nitration of the tripeptide GYA was compared using 10 μM MP and sequential bolus additions of 50 μM (×3), 100 μM (×3), and 200 μM (×3)peroxynitrite (FIG. 6, inset).
# [2] = Ascorbate oxidation by MPs monitored at 266 nm; type: biochemical; details: MP 10 μM, 50 μM ascorbate, 0.1 M potassium phosphate pH 7.4, ± standard error, n=3
# Protocol: (§2) In order to test the hypothesis that Mn(II)- or Fe(II)-porphyrins would be capable of carrying out two-electron reductions of peroxynitrite and thereby decreasing rather than increasing its reactivity, attempts were made to pre-reduce these transition metal-containing MPs prior to addition of peroxynitrite.
# Table V. Ascorbate oxidation by MPs. MPs (10 μM) were added to stirred cuvettes containing 0.1 M potassium phosphate, pH 7.4 and 50 μM ascorbate. Ascorbate oxidation was monitored at 266 nm (ηm=17,700 M^−1cm^−1). Oxidation rates (±standard errors) were determined by fitting the initial linear portion of each curve and averaging the rates (n=3).
# [3] = MP 5 μM, GSH 2 mM, 0.1 M potassium phosphate pH 7.4, 37° C.
# Protocol: Aliquots (14 μl) were removed at 10 min intervals and added to 1.4 of 0.1 M potassium phosphate, pH 7.4 containing 0.2 mM dithionitrobenzoic acid (Ellman's Reagent) and 50 μM EDTA. GSH concentration was determined by the change in 430 nm absorbance. The extinction coefficient at 430 nm was determined to be 13,900 M^−1cm^−1 using a fresh GSH solution standardized by weight.
# as §2
# [4] = Oxidation of metalloporphyrins by peroxynitrite, stopped-flow spectroscopy; type: biochemical; details: 37° C., 0.1 M potassium phosphate pH 7.4, pseudo-first order, ± standard error
# Protocol: Peroxynitrite (in 10 mM NaOH) was rapidly mixed with the indicated MPs in 0.1 M potassium phosphate, pH 7.4 at 37° C. using a stopped-flow apparatus as described in Methods. […] A final concentration of 40 μM peroxynitrite was added to 8 μM of each of the MPs MnTBAP, MnPPIX, and FePPIX. […] INSET: Apparent rate constants for oxidation of 8 μM MnTBAP are plotted as a function of peroxynitrite concentration to illustrate how the rate constants listed in Table III were determined.
# Rates of metal loporphyrin oxidation by peroxynitrite were determined using a Bio Sequential SX-18MV Applied Photophysics stopped-flow spectrofluorometer. Solutions of metalloporphyrins in 0.1 M potassium phosphate buffer, pH 7.4 were placed in one syringe and solutions of peroxynitrite in 10 mM NaOH were placed in a second syringe, both of which were submerged in a water bath at 37° C. Changes in metalloporphyrin absorbance as a function of time were recorded following triggering of syringe firing and solution mixing (instrument dead time=2 msec); a total of 1000 data points were collected over intervals ranging from 50 msec to 3 sec. […] Because the absorbance changes associated with loss of +3 forms were greater, rates of metalloporphyrin oxidation were determined by monitoring the disappearance of Mn(III)TMPyP at 462 nm, Mn(III)TBAP at 468 nm, Mn(III)PPIX at 466 nm, and Fe(III)PPIX at 464 nm. Absorbance changes as a function of time were fitted to the equation describing a first order process. The concentration of peroxynitrite was varied from five-fold to forty-fold greater than the fixed metalloporphyrin concentration in order to obtained pseudo first-order conditions (see Table III). Each concentration was injected 10 times and data were averaged automatically prior to fitting.
# Rate constants for stoichiometric metalloporphyrin oxidation by peroxynitrite at 37° C. were determined under pseudo-first order reaction conditions by varying the amount of peroxynitrite added to a fixed concentration of metalloporphyrin (Table III).
# In Table III, the rate of peroxynitrite-mediated oxidation of metalloporphyrins at 37° C. was determined. Apparent rate constants were determined by stopped-flow spectroscopy and plotted versus the peroxynitrite concentration (as shown for MnTBAP in FIG. 4 inset) to determine the bimolecular rate constant in M^−1s^−1±standard error. FePPIX was monitored at 387 nm, MnPPIX at 464 nm, and MnTBAP at 470 nm.
# [5] = MP-catalyzed peroxynitrite decomposition monitored at 302 nm; type: biochemical; details: 100 μM peroxynitrite
# Protocol: Peroxynitrite (100 μM) was added to rapidly stirred cuvettes at 37° C. containing the indicated concentrations of MPs in 0.1 M potassium phosphate, pH 7.4. Ascorbate was added to 150 μM where indicated. Peroxynitrite decomposition was monitored at 302 nm using a Hewlett-Packard diode-array spectrophotometer. Apparent rates (kapparents^−1, average of n=3) were plotted versus MP concentration to determine rate constants in M^−1s^−1.
# Reactions contained the indicated concentration of FeTCPPin 1.4 ml of 0.1 M potassium phosphate, pH 7.4 in the absence or presence to 150 μM ascorbic acid. Peroxynitrite (100 μM) was added to rapidly stirred cuvettes at 37° C. and the decay of peroxynitrite was monitored continuously at 302 nm. Decay data were fitted to the equation describing first order decay to obtain apparent decay rates (kapparent sec^−1). Apparent decay rates as a function of FeTCPP were fitted by linear regression and the rate constant was obtained slope of the line.
# Peroxynitrite (100 μM) decomposition was determined at 302 nm using a Hewlett-Packard diode-array spectrophotometer fitted with a temperature-controlled cuvette chamber and a water-driven cuvette stirrer. Bolus additions of peroxynitrite were made to vigorously stirred cuvettes containing varying concentrations of MPs (see Table III) while data were collected at a rate of ten points/sec. […] Each reaction was repeated three times and only the first additions of peroxynitrite were averaged. Data were exported for fitting and plotting. Apparent rates of peroxynitrite decomposition were plotted as a function of metalloporphyrin concentration (as shown in FIG. 5) to determine concentration-independent rate constants at 37° C.
# Rates of peroxynitrite (100 μM) decomposition were determined at different MP concentrations. Ascorbate was added to 150 μM where indicated. […] Apparent rate constants were plotted versus MP concentration (as in FIG. 5A,B) to determine true rate constants in M^−1s^−1±standard error.
# [6] = MP-catalyzed nitration of HPA: effect of pH, reductants and serum; type: biochemical; details: for enhancement of nitration yield at pH 9.1 / effect of ascorbate on nitration enhancement: 8 mM HPA, 10 μM MP; for enhancement of nitration yield at pH 9.1: 0.1 M sodium borate pH 9.1, versus non-catalyzed; for effect of ascorbate and GSH on nitration enhancement: concentrations which eliminated non-catalyzed nitration; for effect of serum on nitration enhancement: fresh human serum 1:10 added prior to peroxynitrite; for effect of ascorbate on nitration enhancement: ascorbate 150 μM, pH 7.4
# Protocol: Single additions of 100 μM peroxynitrite were made to reactions containing ascorbate or GSH. Three sequential additions of 100 μM peroxynitrite were made to all other reactions.
# as §1, with “This” for “For nitration of GYA peptide (see FIG. 6), reaction solutions contained 2 mM GYA and 10 μM of the indicated MP in 1.4 ml of 0.1 M potassium phosphate, pH 7.4 at 37° C. Comparisons with two previously characterized nitration catalysts, human Cu,Zn superoxide dismutase (hCu,Zn SOD) and carbon dioxide, were made using 10 μM of SOD subunit and 25 mM potassium bicarbonate, respectively, which was pH-adjusted to 7.4. This”
"oxidation by H2O2 (0.5 mM H2O2, 20 min)",SMILES,effect on nitration [1],Rate of Ascorbate Oxidation [2],rate of GSH oxidation [3],Rate Constants for Oxidation of MPs by Peroxynitrite [4],"Rate Constants for MP-Catalyzed Decomposition of Peroxynitrite (pH 7.4, 37° C.) ([5]; absence of added reductants)",enhancement of nitration yield at pH 9.1 [6],effect of ascorbate and GSH on nitration enhancement [6],effect of serum on nitration enhancement [6],"ascorbate concentration giving complete inhibition of nitration enhancement ([6]; dose-dependent, not shown)",effect of HOCl on the MP (50 μM HOCl),effect of ascorbate on nitration enhancement [6],"Rate Constants for MP-Catalyzed Decomposition of Peroxynitrite (pH 7.4, 37° C.) ([5]; plus ascorbate 150 μM)"
,"C[n+]1ccc(-c2c3nc(c(-c4cc[n+](C)cc4)c4ccc([n-]4)c(-c4cc[n+](C)cc4)c4nc(c(-c5cc[n+](C)cc5)c5ccc2[n-]5)C=C4)C=C3)cc1.Cc1ccc(S(=O)(=O)[O-])cc1.Cc1ccc(S(=O)(=O)[O-])cc1.Cc1ccc(S(=O)(=O)[O-])cc1.Cc1ccc(S(=O)(=O)[O-])cc1.[Cu+2] [CuTMPyP, Copper (II) meso-tetra-(N-methyl-4-pyridyl)-porphine tetra tosylate]",small but reproducible inhibitory effect,6.50 ± 0.32 µM/min,29 µM/min,,,,,,,,,
,"C=CC1=C(C)c2cc3[n-]c(cc4nc(cc5[n-]c(cc1n2)c(C)c5CCC(=O)O)C(CCC(=O)O)=C4C)c(C)c3C=C.[Fe] [FePPIX, Iron (III) protoporphyrin IX dichloride]",,1.33 ± 0.07 µM/min,,1e+06 M⁻¹ s⁻¹,3.7×10^5 M^−1s^−1 and 3.7 × 10^5 ± 0.2 M^−1s^−1,5.7 fold,much less inhibitory effect,largely eliminated the nitration enhancement,,,,
did not appear to oxidize,"C[n+]1ccc(-c2c3nc(c(-c4cc[n+](C)cc4)c4ccc([n-]4)c(-c4cc[n+](C)cc4)c4nc(c(-c5cc[n+](C)cc5)c5ccc2[n-]5)C=C4)C=C3)cc1.[Cl-].[Cl-].[Cl-].[Cl-].[Cl-].[Fe+3] [FeTMPyP, Iron (III) meso-tetra-(N-methyl-4-pyridyl)-porphine chloride]",,146.20 ± 7.2 µM/min,22 µM/min,,7.9 × 10^5 ± 0.9 M^−1s^−1,10.7 fold,much less inhibitory effect,much less effect,1.5 mM,appeared to destroy the metal-pyrrole center,,
,"C=CC1=C(C)c2cc3[n-]c(cc4[n-]c(cc5nc(cc1n2)C(C)=C5C=C)c(C)c4CCC(=O)[O-])c(CCC(=O)[O-])c3C.[H+].[H+].[Mn+2] [MnPPIX, Manganese (III) protoporphyrin IX dichloride]",,0.96 ± 0.05 µM/min,,99000 M⁻¹ s⁻¹,,did not enhance nitration yields,largely prevented the enhancement of nitration,largely eliminated the nitration enhancement,,,pronounced inhibitory effect,
,"O=C(O)c1ccc(-c2c3nc(c(-c4ccc(C(=O)O)cc4)c4ccc([n-]4)c(-c4ccc(C(=O)O)cc4)c4nc(c(-c5ccc(C(=O)O)cc5)c5ccc2[n-]5)C=C4)C=C3)cc1.[Mn+3] [MnTBAP, Manganese (III) tetra-(4-benzoic acid)-porphyrin]",,,,25000 M⁻¹ s⁻¹,no acceleration,did not enhance nitration yields,largely prevented the enhancement of nitration,largely eliminated the nitration enhancement,,,pronounced inhibitory effect,3.3 × 10^4 ± 0.4 M^−1s^−1
